The structures appear in SMILES notation.

The nature of data set [1]: Partition of marker compound between water and gasoline phases. Format: physicochemical. The conditions noted are these: for Initial Fluorescence Intensity in Water Phase / Fluorescence Intensity in Water Phase After Partition: gasoline, excitation 540 nm, emission 590 nm; for Initial Fluorescence Intensity in Water Phase: 10 ppb marker; for Fluorescence Intensity in Water Phase After Partition: not background corrected; for Partition Ratio (Kd): water/gasoline, corrected for background. As to the method: (§1) In this Example, the separation/partition of the marker compound between water and fuel phases was measured. The procedure for this Example included: measure fluorescence of 10 grams of water phase with and without marker compound present to determine background fluorescence. Then, 10 grams of hydrocarbon including 10 ppb of marker compound was added to the water and gently agitated for 1 minute. After mixing, the sample was allowed to completely separate into two phases. Thereafter, the fluorescence of the water phase was re-measured. Since the marker concentration is directly proportional to fluorescence intensity (at 10 ppb and within a range of interest), the Partition Ratio can be calculated from the initial and final tracer fluorescence intensities (corrected for any background fluorescence) from the water phase.
(§2) For this Example, Rhodamine B, Rhodamine 101, and Fluorescein marker compounds were used. For Rhodamine 101 and Rhodamine B measurements, excitation wavelength was 540 nm and emission wavelength was 590 nm. For Fluorescein measurements, excitation wavelength was 470 nm and emission wavelength was 515 nm.

The nature of data set [2]: Partition of marker compound between water and heptane phases. Format: physicochemical. The conditions noted are these: for Initial Fluorescence Intensity in Water Phase / Fluorescence Intensity in Water Phase After Partition: heptane, excitation 540 nm, emission 590 nm; for Initial Fluorescence Intensity in Water Phase: 10 ppb marker; for Fluorescence Intensity in Water Phase After Partition: not background corrected; for Partition Ratio (Kd): water/heptane, corrected for background. As to the method:
as §1, §2

Consider `O=C([O-])c1ccccc1C1=c2cc3c4c(c2Oc2c1cc1c5c2CCCN5CCC1)CCC[N+]=4CCC3` [Rhodamine 101], for which, in data set [1], the “Initial Fluorescence Intensity in Water Phase” value (from here on “Initial Fluorescence Intensity”) was 73.5 arb units, the “Fluorescence Intensity in Water Phase After Partition” value came out at 12.5 arb units and the “Partition Ratio (Kd)” value was found to be 0.20. In addition, in data set [2], the “Initial Fluorescence Intensity” value was found to be 73 arb units, the “Fluorescence Intensity in Water Phase After Partition” value is recorded as 20 arb units and the “Partition Ratio (Kd)” value was 0.35.
As to `CCN(CC)c1ccc2c(-c3ccccc3C(=O)O)c3ccc(=[N+](CC)CC)cc-3oc2c1.[Cl-]` [Rhodamine B], in data set [1], the “Initial Fluorescence Intensity” value is given as 71.5 arb units, the “Fluorescence Intensity in Water Phase After Partition” value is listed as 13 arb units and the “Partition Ratio (Kd)” value was 0.21. Further, in data set [2], the “Initial Fluorescence Intensity” value is listed as 75 arb units, the “Fluorescence Intensity in Water Phase After Partition” value stood at 21.5 arb units and the “Partition Ratio (Kd)” value stood at 0.38.

These data come from patent publication US12169192B2, “Methods of identifying a hydrocarbon fuel” (Afton Chemical Corporation, priority 2020, dated 2024).
